Test results taken from paper PMC11035632, “Discovery of gefitinib-1,2,3-triazole derivatives against lung cancer via inducing apoptosis and inhibiting the colony formation” (Scientific Reports, 2024).

Experiments:
[1] = tested on: NCI-H1299 cells; test: CCK-8 assay for cell proliferation and cytotoxicity, NCI-H1299; type: cell-based; conditions: Homo sapiens, CCK-8, 48 h
Method: (§1) Three types of lung cells were seeded into 96-well plate at a density of 5 × 10^3 cells per well at logarithmic growth phase and cultured in 37 °C. […] After that, cell viability was determined according to the instruction of the CCK-8 assay. Next, 10 μL of CCK-8 solution was added to each well of the plate and incubate the plate for 1–4 h in the incubator. The absorbance was measured at 450 nm using a microplate reader (Bio-Tek). The percentage of viable cells was measured using the following formula where three independent experiments were performed: [(A450 sample − A450blank)/(A450 control − A450blank)] × 100%.

[2] = tested on: A549 cells; test: CCK-8 assay for cell proliferation and cytotoxicity, A549; type: cell-based; conditions: Homo sapiens, CCK-8, 48 h
Method: A549 cells were cultured in a humidified incubator at 37 °C with 5% CO2 in Ham’s F-12 K (PM150910, Procell) supplemented with 10% FBS and 1% Penicillin Streptomycin.
as §1

[3] = tested on: NCI-H1437 cells; test: CCK-8 assay for cell proliferation and cytotoxicity, NCI-H1437; type: cell-based; conditions: Homo sapiens, CCK-8, 48 h, read-out: IC50 1437
Method: as §1

[4] = tested on: L02 cells; test: Cytotoxicity / survival rate in normal hepatocytes L02; type: cell-based; conditions: for Survival rate %, 48 h: L02 cells
[5] = tested on: H1299 cells; test: Flow cytometry detection of apoptosis (Annexin V-EGFP/PI); type: cell-based, human; conditions: 48 h
Method: H1299 cells were treated with different concentrations of 7a and 7j for 48 h. The cells were stained with Annexin-V and PI, and the proportion of apoptotic cells was detected using flow cytometry.
H1299 cells were seeded in a 6-well plate at a density of 1 × 10^5 cells/well and incubated for 24 h. On the following day, the medium was replaced with fresh medium containing 7a or 7j (2, 4 and 8 μmol/L) and cells were incubated for an additional 48 h. Cell apoptosis was detected using Annexin V-EGFP/PI apoptosis detection Kit by flow cytometry. Subsequently, 5 µl of […] Annexin V and 10 µl of PI was added to the cell suspension, gently vortexed, and incubated at room temperature in the dark for 20 min, then single-cell suspension was prepared followed by flow cytometry (BD Accuri™ C6 Plus).

[6] = tested on: H1299 cells; test: DAPI staining for cell apoptosis; type: cell-based, human; conditions: H1299, 2, 4 and 8 μmol/L, 48 h
Method: In order to further verify the apoptotic activity induced by 7a and 7j in lung cancer cells, H1299 cells were treated with different concentrations of compounds 7a and 7j for 48 h, followed by DAPI staining. […] As the drug concentration increased, nuclear staining intensified, and even nuclear condensation and fragmentation phenomena were observed.
H1299 (1.5 × 10^4 ~ 2 × 10^4 /well) cells were seeded in 24-well plates for 24 h, and then treated with 7a or 7j at the concentrations of 2,4 and 8 μmol/L for 48 h., the cells were fixed for 30 min at room temperature in 4% paraformaldehyde and washed 3 times in PBS. Finally, every well was stained with DAPI (10 µg/mL, C0065, Solarbio) at room temperature for 30 min, and washed at least three times in PBS. The fluorescence microscope was used to observe the morphological changes of cell nuclei.

[7] = tested on: H1299 cells; test: Wound healing assay; type: cell-based, human; conditions: 24 h
Method: H1299 cells were seeded in a 6-well plate, When the cell confluency reached 95%, a wound line was scratched using a 200 µl pipette tip, and then washed three times, fresh medium containing 7a or 7j (2, 4 and 8 μmol/L) was added, and the plate was incubated at 37 °C with 5% CO2. All the images were captured at 0 h and 24 h under an inverted microscope, and the quantification of scratches was analysed using Image J.

[8] = tested on: H1299 cells; test: Transwell migration assay; type: cell-based, human; conditions: H1299, 2, 4 and 8 μmol/L, 24 h, vs normal control, p < 0.01
Method: Transwell chamber migration assay is another important method to assess cell migration ability. Tumor cells are seeded in the chamber, and the number of tumor cells that pass through the membrane is counted to evaluate the migration ability of tumor cells.
Transwell assay was used to determine the migration ability of H1299 cells. Cells were starved in serum-free RPMI 1640 medium for 24 h, then detached and resuspended in serum-free RPMI 1640 medium. 5 × 10^5 cells/mL were inoculated into the upper chamber of a 24-well Transwell plate (Corning Inc., United States), with a volume of 100 µl per well. Then, 100 µL serum-free medium containing 7a or 7j (2, 4 and 8 μmol/L) was added to the upper chamber and the lower chamber was filled with 700 µL medium containing 20% FBS. After incubation for 24 h, H1299 cells on the upper membrane of the transwell were wiped off. The migrated cells were treated with 4% paraformaldehyde for 20 min, stained with 0.1% crystal violet for 20 min and washed three times with PBS. The number of H1299 cells that migrated to the underside of the membrane was counted under the inverted fluorescence microscope. Three randomly selected areas from each transwell were photographed and calculated using Image J.

[9] = tested on: H1299 cells; test: Colony formation assay; type: cell-based, human; conditions: 7 days
Source text: The colony formation assay is an important method for evaluating the ability of adherent cells to proliferate and form colonies on a plate, and it is widely used to assess cell proliferation. We also employed the colony formation assay to further confirm that compounds 7a and 7j can inhibit the proliferation of lung cancer cells, as shown in Fig. 5. After treating lung cancer cells with low, medium, and high concentrations (1, 2, 4 μmol/L) of compounds for 7 days, the number of cell colonies was counted to analyze the proliferation inhibition rate.
H1299 cells were seeded in six-well plates at a density of 500 cells per well and treated with 7a or 7j (1, 2 and 4 μmol/L) for 7 days. Then, cells were per-fixed with 4% paraformaldehyde for 30 min, stained with 0.1% Crystal violet for 15 min, and then washed with pure water. Taking a picture after the plates were air-dry. The clone formations number was counted with Image J.

[10] = tested on: Bcl-2, caspase9, Cleaved-Caspase3, Cleaved-PARP, MMP9 in H1299 cells; test: Western blot of apoptosis- and migration-related proteins; type: cell-based, human; conditions: H1299, 4, 8 or 16 μM, 48 h
Source text: We conducted an in-depth investigation into the mechanism of apoptosis induced by compounds 7a and 7j. The Bcl-2 protein family is located upstream of the apoptosis signaling pathway. Bcl-2 proteins play an anti-apoptotic role by inhibiting the release of cytochrome C (cyt-c) from mitochondria. Previous literature reports that many anticancer drugs induce apoptosis by downregulating Bcl-2 expression. During apoptosis, the expression of Bcl-2 is inhibited, cyt-c is released, and it binds with the apoptotic protease activation factor to form the apoptosome. This triggers a cascade reaction of Caspase family proteins, with apoptosome promoting the activation of Caspase9. Activated Caspase9 then activates Caspase3, forming the Caspase3 cleavage body, which further activates downstream PARP protein, ultimately promoting cell apoptosis. […] After treating H1299 cells with different concentrations of compounds for 48 h, cell proteins were extracted, and western blot was used to detect the expression changes of apoptosis-related proteins.
Firstly, H1299 cells were treated with different concentrations concentrations of 7a and 7j at 4, 8 and 16 μmol/L for 48 h, cells were harvested using RIPA lysate (R0010, Solarbio) and centrifuged at 12,000 rpm for 15 min at 4 °C, and then the concentration of total protein was measured and taken from the supernatant. Protein was separated by 12% SDS–polyacrylamide gel electrophoresis and transferred to nitrocellulose filter membrane. after blocking in 5% milk for 2 h, the membranes were incubated with specific primary antibody at 4 °C overnight. Next day, NC membranes were incubated for 1 h at room temperature with appropriate secondary antibodies, and then Protein bands was visualizing by chemiluminescence detection (ECL kit, Genview).

Structure (SMILES): COc1cc2ncnc(Nc3cccc(-c4cn(Cc5cccc(Cl)c5)nn4)c3)c2cc1OCCCN1CCOCC1 [Compound 7j]
- IC50 [1]: 3.84 ± 0.22 µM
- IC50 [2]: 3.86 ± 0.38 µM
- IC50 [3]: 1.69 ± 0.25 µM
- IC50 ([4]; Homo sapiens, normal hepatocytes L02): 17.7 ± 0.52 µM
- Survival rate %, 48 h ([4]; 2 μM): 94.49 ± 4.11%
- Survival rate %, 48 h ([4]; 4 μM): 89.12 ± 5.50%
- Survival rate %, 48 h ([4]; 8 μM): 75.59 ± 2.65%
- Survival rate %, 48 h ([4]; 16 μM): 59.14 ± 1.54%
- Survival rate %, 48 h ([4]; 32 μM): 24.48 ± 3.68%
- total apoptotic cell proportion ([5]; H1299, 2 μmol/L): 14.97 ± 1.54%
- total apoptotic cell proportion ([5]; H1299, 4 μmol/L): 27.07 ± 2.77%
- total apoptotic cell proportion ([5]; H1299, 8 μmol/L): 65.77 ± 2.93%
- apoptotic morphology by DAPI staining [6]: exhibited typical apoptotic features
- migration closure rate ([7]; H1299, 2 μmol/L): 72.57 ± 3.43%
- migration closure rate ([7]; H1299, 4 μmol/L): 60.91 ± 8.48%
- migration closure rate ([7]; H1299, 8 μmol/L): 48.88 ± 3.23%
- number of cells passing through the membrane to the lower surface of the chamber [8]: significantly decreased
- formation of H1299 cell colonies ([9]; 1 μmol/L): markedly inhibit
- colony formation ([9]; H1299, 4 μmol/L): almost completely suppressed
- Bcl-2 protein expression level [10]: decrease
- Cleaved-Caspase3 protein expression level [10]: increased
- Cleaved-PARP protein expression level [10]: increased
- MMP9 protein expression [10]: downregulated
- caspase9 protein expression level [10]: decrease
